Test results as given in US20090324616A1, “DIFFERENTIAL CYTOKINE EXPRESSION IN HUMAN CANCER” (priority 2006, published 2009).

T1: human Interleukin4 (IL4) (Homo sapiens, UniProt P05112)
T1 sequence (P05112 25-153): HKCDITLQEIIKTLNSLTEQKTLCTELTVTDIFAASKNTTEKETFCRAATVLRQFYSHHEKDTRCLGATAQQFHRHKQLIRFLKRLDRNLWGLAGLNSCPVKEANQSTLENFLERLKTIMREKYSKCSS

B1: IL-4: human recombinant IL-4 (Euroclone), used at 20 ng/ml (protein)
chain: HKCDITLQEIIKTLNSLTEQKTLCTELTVTDIFAASKNTTEKETFCRAATVLRQFYSHHEKDTRCLGATAQQFHRHKQLIRFLKRLDRNLWGLAGLNSCPVKEANQSTLENFLERLKTIMREKYSKCSS

Assays:
human Interleukin4 (IL4) = target: T1, human Interleukin4 (IL4); experiment: IL-4-pull down assay; assay type: binding; conditions: 4 μg protein immobilized to Streptactin Sepharose, 400 ng IL4, 60 min; FIG. 10
Experimental: To test for specific IL-4 binding of IL4R-Fc and IL4R-IL13R-Fc, 4 μg of both proteins, respectively, were immobilized to Streptactin Sepharose via their Strep-Tag. The immobilized proteins were subsequently incubated for 60 min with 400 ng of recombinantly expressed human Interleukin4 (IL4) in a total volume of 400 μl phosphate buffered saline. Subsequently the beads were washed and bound proteins were specifically eluted with desthiobiotin in a total volume of 40 μl elution buffer. Eluted proteins were finally analysed via SDS-PAGE and Silver staining.

breast cancer stem cells = experiment: Apoptosis of breast cancer spheres, combination with doxorubicin; assay type: cell-based; conditions: 10 μg pre-treatment 24 hrs, then 5 μM doxorubicin 24 hrs; for sensitisation for doxorubicin induced apoptosis compared with IL-4 specific antibody (positive control): FIG. 11B; for amount of apoptotic breast cancer stem cells: compared with Doxorubicin alone, FIG. 11A
Experimental: To test for the ability of IL4R-Fc and IL4R-IL13R-Fc to induce apoptosis, both proteins were added to the growth medium of breast cancer stem cells either alone or in combination with doxorubicin. […] The cells were stained with orange acridine/ethidium bromide (red: dead cells; green: viable cells).

[1] = test system: primary colon cancer cells; experiment: Primary colon cancer cell viability (MTS), combination with oxaliplatin; assay type: cell-based; conditions: 10 μg pre-treatment 24 hrs, then 100 μM oxaliplatin 24 hrs; FIG. 11C
Experimental: On primary colon cancer cells the IL4R-Fc and IL4R-IL13R-Fc constructs were tested in combination with oxaliplatin treatment. Primary colon cancer cells pre-treated with PBS (w/o) or 10 μg of IL4R-Fc, IL4R-IL13R-Fc or anti IL4-antibody for 24 hrs and successively exposed for another 24 hrs to 100 μM oxaliplatin. The graphs show the percentage of cell viability measured by MTS analysis (CellTiter 96, Aquos, Promega).

[2] = test system: Primary (adherent) cells from human colon cancer specimens; experiment: Viability of primary (adherent) colon cancer cells exposed to drugs; assay type: cell-based; conditions: cisplatinum 300 ng/ml, oxaliplatin 100 μM, TRAIL 200 ng/ml; FIG. 6a
Experimental: (§1) Survival and death assays. To evaluate apoptotic events the DNA staining and flow cytometry analysis were performed. The percentage of hypodiploid nuclei was evaluated as described in Stassi et al., Cancer Res. 2003, 63 (20):6784-90. Alternatively, human purified cancer cells were plated in 96-well plates in triplicate at 15,000 cells/well and cultured. The number of viable cells was detected by CellTiter Aqueous Assay Kit (Promega Corporation, WI, USA) following the instructions of manufacturer. HuT78 cells plated at […] and treated with CD95-activating antibody CH11 (200 ng/ml) were used as a positive control for cell death measurement.
(§2) To investigate the sensitivity of colon CSC to chemotherapeutic drugs, the viability of colon CSC spheroids exposed to cisplatinum (300 ng/ml) and oxaliplatin (100 μM) was measured, doses equivalent to those reached during cancer treatment in vivo. In addition, colon CSC were treated with the apoptosis-inducing death ligand TRAIL (200 ng/ml).

colon CSC = experiment: Viability of colon CSC spheroids exposed to drugs; assay type: cell-based, human; conditions: cisplatinum 300 ng/ml, oxaliplatin 100 μM, TRAIL 200 ng/ml, FIG. 6a
Experimental: as §1, §2

[3] = test system: colon cancer generated by CSC; experiment: IL-4 neutralization in vivo, colon tumours generated by CSC; conditions: oxaliplatin i.p. once a week for 4 weeks, combined with control IgG; mice
Text: Tumours were allowed to grow for 10 days (size ˜0.2 cm^3) and then treated intra-tumourally with neutralising antibodies against IL-4 or control IgG twice a week for 3 weeks.

[4] = test system: colon, breast, gastric and lung normal cells; experiment: Cell growth of normal cells exposed to IL-4; assay type: cell-based, human; conditions: 20 ng/ml of IL-4; FIG. 3b
Experimental: (§3) Human primary cell purification. Normal and cancer tissues were digested for 2 hours with collagenase (1.5 mg/ml) (Gibco BRL., Grand Island, N.Y.) and hyaluronidase (20 μg/ml) (Sigma Chemical Co., St. Louis, Mo.) as previously described (1). Once digested, cells were maintained on plastic in DMEM medium (EuroClone Ltd., West York, UK) at 37° C. in a humidified atmosphere of 5% CO2. Following 12 further hours of culture, cancer cells were allowed to grow in monolayer for the immunocytochemistry or detached with trypsin+EDTA for functional, protein expression and gene transcript levels analyses. For colon and gastric cells culture, plastic was coated with[…] of collagen (Calbiochem GmbH, Darmstadt, Germany). […]
Survival and death assays. […] The percentage of hypodiploid nuclei was evaluated as described in Stassi et al., Cancer Res. 2003, 63 (20):6784-90. […] The number of viable cells was detected by CellTiter Aqueous Assay Kit (Promega Corporation, WI, USA) following the instructions of manufacturer. […]
In order to investigate the possible involvement of IL-4 on tumour cell survival, colon, breast, gastric and lung normal cells were exposed to 20 ng/ml of IL-4 and analyzed for cell growth.

[5] = test system: cFLIP, PED/PEA-15, Bcl-xL and Bcl-2 in normal colon, breast, gastric and lung cells; experiment: Anti-apoptotic protein expression in normal cells pre-incubated with IL-4; assay type: cell-based, human; conditions: gastric and lung cells pre-incubated with IL-4, FIG. 3c
Experimental: as §3
Protein isolation and western blotting analysis. […] Immunoblotting of Abs specific for actin (Ab-1, mouse IgM, Calbiochem, Darmstadt, Germany), CD95L (G2474, mouse IgG1, PharMingen, San Diego), CD95 (C-20, Santa Cruz Biotechnology), cFLIP (NF6 mouse IgG1, Alexis Biochemicals, Switzerland), PED/PEA-15 (rabbit IgG kindly provided by G. Condorelli), Bcl-2 (124, mouse IgG1, Upstate Biotechnology Inc.) and Bcl-XI (H-5, mouse IgG1, Santa Cruz Biotechnology) was detected by HRP-conjugated anti-mouse or anti-rabbit Abs (Amersham Biosciences UK Limited, England) and visualized with the chemiluminescence detection system (SuperSignal West Dura Extended duration Substrate, Pierce, Ill., USA). […]

Row | Molecule | binding of human IL-4 (pull down, SDS-PAGE and Silver staining) (human Interleukin4 (IL4)) | sensitisation for doxorubicin induced apoptosis compared with IL-4 specific antibody (positive control) (breast cancer stem cells) | amount of apoptotic breast cancer stem cells (breast cancer stem cells) | cell viability (MTS) in comparison with oxaliplatin treatment alone [1] | sensitivity in vitro (viability) [2] | sensitivity to drug-induced apoptosis (viability) (colon CSC) | other results
1 | IL4R-Fc: shortened extracellular domain of IL-4-Receptor-alpha (aa1-aa224) fused to the Fc-part of human IGHG1, with Flexstreptag-II | specific binding | in the same range | clearly increased | reduced cell viability | – | – | –
2 | O=C1[O][Pt]2([NH][C@@H]3CCCC[C@H]3[NH]2)[O]C1=O [oxaliplatin] | – | – | – | – | some sensitivity | significantly resistant | tumour size [3]: reduced tumour size
3 | TRAIL | – | – | – | – | some sensitivity | significantly resistant | –
4 | N.N.[Cl][Pt][Cl] [cisplatinum] | – | – | – | – | some sensitivity | significantly resistant | –
5 | IL4R-IL13R-Fc: IL-4-Receptor-alpha extracellular domain fused to IL13-receptor alpha extracellular domain and Fc-part of human IGHG1, with Flexstreptag-II | specific binding | in the same range | clearly increased | reduced cell viability | – | – | –
6 | B1 | – | – | – | – | – | – | growth rate of colon, breast and lung normal cells [4]: significantly increased; protein levels of cFLIP, PED/PEA-15, Bcl-xL and Bcl-2 [5]: increased
